Results on one compound are retold here after PMC10525135, “Computationally Designed AMPs with Antibacterial and Antibiofilm Activity against MDR Acinetobacter baumannii” (Antibiotics, 2023).

Each structure is given as a SMILES string. In brackets after ≈: the same amount, converted by molar mass. Residues, ends and D or L forms follow the SMILES beside them.

One data set concerns A. baumannii BAA-1800. It counts as cell-based, Acinetobacter baumannii. Particulars: A. baumannii BAA-1800; Difco Mueller Hinton broth, 5 × 10^5 CFU/mL, 37 °C 5% CO2, 20–24 h, OD600, n = 3. The procedure: (§1) Minimum inhibitory concentration (n = 3) was performed according to the CLSI protocols with a minor modification, in which Difco Mueller Hinton broth (BD 275730, Franklin Lakes, NJ, USA) was used instead of cation-adjusted Mueller Hinton broth following Wiegand et al.’s standardized protocol for testing AMPs. Bacteria were grown overnight in an opaque colony, and the concentration was determined using McFarland’s technique. An aliquot of 50 µL of 1 × 10^6 CFU/mL of bacteria was incubated with a decreasing series of peptide concentration to achieve a final bacterial concentration of 5 × 10^5 CFU/mL at 37 °C 5% CO2 for 20–24 h in Difco Mueller Hinton broth. Dilutions were performed in a 96-well polypropylene plate (Corning 3879, Corning, NY, USA). This is critical to avoid peptide binding to the plate. Results were obtained by measuring bacterial growth at OD600 nm. LL-37 and polymyxin B were used as positive controls. Samples containing only the medium and medium with peptides were used as the sterility controls and samples containing only bacteria in MHB served as the growth control. Each experiment was performed twice, and one representative experiment is shown.

A further data set deals with A. baumannii BAA-1794. The data set is classed as cell-based, Acinetobacter baumannii. Conditions: A. baumannii BAA-1794; Difco Mueller Hinton broth, 5 × 10^5 CFU/mL, 37 °C 5% CO2, 20–24 h, OD600, n = 3. The procedure: as §1
A further data set deals with Galleria mellonella. The experiment in a line: Waxworm toxicity testing. Particulars: 10 µg in 10 µL PBS injected per worm, 10 worms per group, 72 h.
The next data set concerns AB5075. The experiment in a line: Membrane permeabilization assay (ethidium bromide uptake). The data set is classed as cell-based, Acinetobacter baumannii. Conditions: 50 µg/mL, 10 µM ethidium bromide, 20 min at 37 °C, versus untreated control. As to the method: Membrane permeabilization was assessed using ethidium bromide uptake after peptide exposure, as we have previously described. AB5075 was grown on a Tryptic Soy agar for 18–24 h. Colonies presenting opaque morphology were picked and resuspended in DPBS (Gibco, Waltham, MA, USA) to achieve 0.1 OD600. A total of 180 µL of the bacterial suspension was mixed with a final peptide concentration of 50 µg/mL and a final ethidium bromide concentration of 10 µM in a black 96-well flat plate (Ultracruz Polypropylene Microplate sc-204462, Santacruz, CA, USA). The plate was transferred immediately to BioTek Cytation 5 (Santa Clara, CA, USA) for fluorescence intensity readings every 2 min for 20 min at 37 °C (excitation: 535 nm; emission: 590 nm). The relative fluorescence units (RFUs) were calculated. Tested samples minus no peptide control that has EtBr. LL-37 and polymyxin B were used as the controls in this experiment. The experiment was run in three replicates twice. Student’s t-test was used to determine statistical significance.

Another data set has as its system A. baumannii BAA-1710. The experiment in a line: Time-kill kinetics. The data set is classed as cell-based, Acinetobacter baumannii. Particulars: BAA-1710, all tested concentrations (1×, 5×, 10× MIC; MIC = 0.5 µg/mL). From the text:
(§2) At the various timepoints, samples were serially diluted, and CFUs were counted by spot plating on a Tryptic Soy agar.

A further data set relates to A. baumannii AB5075. In words: Time-kill kinetics. It counts as cell-based, Acinetobacter baumannii. Conditions: AB5075, highest concentration (5 µg/mL).
Excerpt: as §2

Procedure for Galleria mellonella: Galleria mellonella were obtained from Vanderhorst Wholesale (Saint Mary’s, OH, USA), and 10 worms with equal weights between 200 to 300 mg were assigned to each group. […] The experiment was performed twice, and the results were analyzed by the Mantel–Cox test.

Regarding `CC[C@H](C)CCCCC(=O)N[C@@H](CCN)C(=O)N[C@H](C(=O)N[C@@H](CCN)C(=O)N[C@H]1CCNC(=O)[C@H]([C@@H](C)O)NC(=O)[C@H](CCN)NC(=O)[C@H](CCN)NC(=O)[C@H](CC(C)C)NC(=O)[C@@H](Cc2ccccc2)NC(=O)[C@H](CCN)NC1=O)[C@@H](C)O` [Polymyxin B] (HELM PEPTIDE1{[CC[C@H](C)CCCCC(=O)[*:2]].[Dab].T.[Dab].[Dab].[Dab].[dF].L.[Dab].[Dab].T}$PEPTIDE1,PEPTIDE1,5:R3-11:R2$$$V2.0; N-terminus assumed; bridges inferred), the MIC in the data set on A. baumannii BAA-1800 and in the data set on A. baumannii BAA-1794 was 0.5 µg/mL (≈ 0.415 µM) in each case. For the same compound, in the data set on Galleria mellonella, the Survival of worms came to 80%. Moreover, in the data set on AB5075, the Membrane permeabilization entry is on record as “disrupted bacterial membranes”. The “Killing within 3 h” value in the data set with A. baumannii BAA-1710 is on record as “failed to kill”. Moreover, the “Time to complete killing” value with A. baumannii AB5075 is recorded as not above 3 h.
